Measured values from US9556157B2, “Enhancer of zeste homolog 2 inhibitors” (GlaxoSmithKline Intellectual Property (No.2) Limited, priority 2013, dated 2017).
pIC50: −log10 of the molar value.

Tests used:
[1] = target: T1, EZH2 within the PRC2 complex (Homo sapiens (Human), UniProt Q15910); experiment: EZH2 methyltransferase SPA, mononucleosome substrate (Assay Protocol 1); type: biochemical; details: mononucleosomes from HeLa cells, 3H-SAM
Procedure: Compounds contained herein were evaluated for their ability to inhibit the methyltransferase activity of EZH2 within the PRC2 complex. Human PRC2 complex was prepared by co-expressing each of the 5 member proteins (FLAG-EZH2, EED, SUZ12, RbAp48, AEBP2) in Sf9 cells followed by co-purification. Enzyme activity was measured in a scintillation proximity assay (SPA) where a tritiated methyl group is transferred from 3H-SAM to a lysine residue on Histone H3 of a mononucleosome, purified from HeLa cells. Mononucleosomes were captured on SPA beads and the resulting signal is read on a ViewLux plate reader.
(§1) Part A. Compound Preparation
• 1. Prepare 10 mM stock of compounds from solid in 100% DMSO. • 2. Set up an 11-point serial dilution (1:3 dilution, top concentration 10 mM) in 100% DMSO for each test compound in a 384 well plate leaving columns 6 and 18 for DMSO controls. • 3. Dispense 100 nL of compound from the dilution plate into reaction plates (Grenier Bio-One, 384-well, Cat#784075). Part B. Reagent Preparation Prepare the following solutions: • 1. 50 mM Tris-HCl, pH 8: Per 1 L of base buffer, combine 1 M Tris-HCl, pH 8 (50 mL) and distilled water (950 mL). • 2. 1× Assay Buffer: Per 10 mL of 1× Assay Buffer, combine 50 mM Tris-HCl, pH 8 (9958 uL), 1 M MgCl2 (20 uL), 2 M DTT (20 uL), and 10% Tween-20 (2 uL) to provide a final concentration of 50 mM Tris-HCl, pH 8, 2 mM MgCl2, 4 mM DTT, 0.002% Tween-20. • 3. 2× Enzyme Solution: Per 10 mL of 2× Enzyme Solution, combine 1× Assay Buffer and PRC2 complex to provide a final enzyme concentration of 10 nM. • 4. SPA Bead Suspension: Per 1 mL of SPA Bead Suspension, combine PS-PEI coated LEADSeeker beads (40 mg) and H2O (1 mL) to provide a final concentration of 40 mg/mL. • 5. […] Read plates • 1. Read the assay plates on the Viewlux Plate Reader utilizing the 613 nm emission filter with a 300 s read time. […]
(§2) Percent inhibition was calculated relative to the DMSO control for each compound concentration and the resulting values were fit using standard IC50 fitting parameters within the ABASE data fitting software package.

[2] = target: T1, EZH2 within the PRC2 complex; experiment: EZH2 methyltransferase SPA, biotinylated histone H3K27 peptide substrate (Assay Protocol 2); type: biochemical; details: 3H-SAM
Procedure: Compounds contained herein were evaluated for their ability to inhibit the methyltransferase activity of EZH2 within the PRC2 complex. Human PRC2 complex was prepared by co-expressing each of the 5 member proteins (FLAG-EZH2, EED, SUZ12, RbAp48, AEBP2) in Sf9 cells followed by co-purification. Enzyme activity was measured in a scintillation proximity assay (SPA) where a tritiated methyl group is transferred from 3H-SAM to a lysine residue on a biotinylated, unmethylated peptide substrate derived from histone H3. The peptides were captured on streptavidin-coated SPA beads and the resulting signal was read on a ViewLux plate reader.
as §1
• 4. Prepare 10 mM stock of compounds from solid in 100% DMSO. • 5. Set up an 11-point serial dilution (1:4 dilution, top concentration 10 mM) in 100% DMSO for each test compound in a 384 well plate leaving columns 6 and 18 for DMSO controls. • 6. Dispense 10 nL of compound from the dilution plate into reaction plates (Corning, 384-well polystyrene NBS, Cat#3673). Part B. Reagent Preparation Prepare the following solutions: • 7. 1× Base Buffer, 50 mM Tris-HCl, pH 8, 2 mM MgCl2: Per 1 L of base buffer, combine 1 M Tris-HCl, pH 8 (50 mL), 1 M MgCl2 (2 mL), and distilled water (948 mL). • 8. 1× Assay Buffer: Per 10 mL of 1× Assay Buffer, combine 1× Base Buffer (9.96 mL), 1 M DTT (40 uL), and 10% Tween-20 (1 uL) to provide a final concentration of 50 mM Tris-HCl, pH 8, 2 mM MgCl2, 4 mM DTT, 0.001% Tween-20. • 9. 2× Enzyme Solution: Per 10 mL of 2× Enzyme Solution, combine 1× Assay Buffer (9.99 mL) and 3.24 uM EZH2 5 member complex (6.17 uL) to provide a final enzyme concentration of 1 nM.
10. […] Read plates • 2. Read the assay plates on the Viewlux Plate Reader utilizing the 613 nm emission filter or clear filter (300 s exposure). […]
as §2

T1 sequence (Q15910 whole entry): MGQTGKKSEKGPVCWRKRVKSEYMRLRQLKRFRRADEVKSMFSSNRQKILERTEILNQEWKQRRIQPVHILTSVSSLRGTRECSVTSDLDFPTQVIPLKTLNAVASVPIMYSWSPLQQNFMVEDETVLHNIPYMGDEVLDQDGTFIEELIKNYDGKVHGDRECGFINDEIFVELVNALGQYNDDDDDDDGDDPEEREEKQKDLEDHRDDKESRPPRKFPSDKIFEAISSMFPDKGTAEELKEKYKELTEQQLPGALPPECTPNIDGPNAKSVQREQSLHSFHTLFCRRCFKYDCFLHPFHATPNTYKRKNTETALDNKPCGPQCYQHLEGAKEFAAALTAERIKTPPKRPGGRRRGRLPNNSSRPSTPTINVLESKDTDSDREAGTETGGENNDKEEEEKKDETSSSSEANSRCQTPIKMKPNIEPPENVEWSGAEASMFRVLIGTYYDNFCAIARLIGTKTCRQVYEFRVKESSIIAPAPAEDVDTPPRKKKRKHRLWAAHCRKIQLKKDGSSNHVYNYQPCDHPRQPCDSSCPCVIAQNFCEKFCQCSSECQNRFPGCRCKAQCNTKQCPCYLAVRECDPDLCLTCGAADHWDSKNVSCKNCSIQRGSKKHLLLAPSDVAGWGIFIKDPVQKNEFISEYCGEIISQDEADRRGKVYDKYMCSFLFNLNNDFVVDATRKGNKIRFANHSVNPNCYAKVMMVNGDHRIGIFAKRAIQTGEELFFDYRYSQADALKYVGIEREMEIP
T1 sequence (O75530 whole entry partner): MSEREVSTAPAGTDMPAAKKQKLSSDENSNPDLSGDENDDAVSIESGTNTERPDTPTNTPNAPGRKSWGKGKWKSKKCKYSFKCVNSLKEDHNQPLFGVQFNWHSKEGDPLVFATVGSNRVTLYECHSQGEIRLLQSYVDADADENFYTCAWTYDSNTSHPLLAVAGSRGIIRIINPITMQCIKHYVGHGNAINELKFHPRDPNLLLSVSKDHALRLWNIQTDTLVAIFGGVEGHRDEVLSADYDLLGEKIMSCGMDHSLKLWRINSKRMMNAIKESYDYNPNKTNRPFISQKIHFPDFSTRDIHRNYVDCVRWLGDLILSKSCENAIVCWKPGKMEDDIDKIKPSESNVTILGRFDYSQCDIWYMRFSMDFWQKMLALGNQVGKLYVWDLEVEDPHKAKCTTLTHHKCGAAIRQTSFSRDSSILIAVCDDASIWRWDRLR
T1 sequence (Q15022 whole entry partner): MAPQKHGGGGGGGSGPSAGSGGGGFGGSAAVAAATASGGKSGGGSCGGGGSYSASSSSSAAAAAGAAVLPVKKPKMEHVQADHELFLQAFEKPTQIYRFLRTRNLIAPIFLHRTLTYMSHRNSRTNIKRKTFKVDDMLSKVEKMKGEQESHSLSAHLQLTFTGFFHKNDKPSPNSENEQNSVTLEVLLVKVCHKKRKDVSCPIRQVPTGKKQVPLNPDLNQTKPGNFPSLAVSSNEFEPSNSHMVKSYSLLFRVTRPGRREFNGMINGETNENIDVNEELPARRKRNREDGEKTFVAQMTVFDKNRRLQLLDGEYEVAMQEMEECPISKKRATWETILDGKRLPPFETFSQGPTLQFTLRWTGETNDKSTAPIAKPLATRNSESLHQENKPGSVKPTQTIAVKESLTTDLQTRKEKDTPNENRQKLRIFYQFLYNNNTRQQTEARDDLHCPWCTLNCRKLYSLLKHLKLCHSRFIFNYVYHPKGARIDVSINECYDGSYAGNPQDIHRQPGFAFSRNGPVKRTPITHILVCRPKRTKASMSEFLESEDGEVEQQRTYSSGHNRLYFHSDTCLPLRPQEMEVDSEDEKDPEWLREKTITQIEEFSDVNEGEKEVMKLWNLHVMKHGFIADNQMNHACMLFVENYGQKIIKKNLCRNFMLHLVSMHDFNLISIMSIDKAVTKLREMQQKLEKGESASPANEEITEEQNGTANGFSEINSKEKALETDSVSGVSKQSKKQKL
T1 sequence (Q09028 whole entry partner): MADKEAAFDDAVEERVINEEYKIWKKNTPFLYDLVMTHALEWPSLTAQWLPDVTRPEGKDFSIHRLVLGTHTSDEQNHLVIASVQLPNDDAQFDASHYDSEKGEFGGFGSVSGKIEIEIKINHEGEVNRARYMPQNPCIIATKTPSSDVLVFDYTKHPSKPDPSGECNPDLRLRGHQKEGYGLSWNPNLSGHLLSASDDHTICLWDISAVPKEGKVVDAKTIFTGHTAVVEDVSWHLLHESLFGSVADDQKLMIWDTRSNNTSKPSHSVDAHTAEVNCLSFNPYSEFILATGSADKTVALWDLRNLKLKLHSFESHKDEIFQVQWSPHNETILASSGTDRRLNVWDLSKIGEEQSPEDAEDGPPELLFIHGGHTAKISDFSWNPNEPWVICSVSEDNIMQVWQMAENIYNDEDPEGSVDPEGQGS
T1 sequence (Q6ZN18 whole entry partner): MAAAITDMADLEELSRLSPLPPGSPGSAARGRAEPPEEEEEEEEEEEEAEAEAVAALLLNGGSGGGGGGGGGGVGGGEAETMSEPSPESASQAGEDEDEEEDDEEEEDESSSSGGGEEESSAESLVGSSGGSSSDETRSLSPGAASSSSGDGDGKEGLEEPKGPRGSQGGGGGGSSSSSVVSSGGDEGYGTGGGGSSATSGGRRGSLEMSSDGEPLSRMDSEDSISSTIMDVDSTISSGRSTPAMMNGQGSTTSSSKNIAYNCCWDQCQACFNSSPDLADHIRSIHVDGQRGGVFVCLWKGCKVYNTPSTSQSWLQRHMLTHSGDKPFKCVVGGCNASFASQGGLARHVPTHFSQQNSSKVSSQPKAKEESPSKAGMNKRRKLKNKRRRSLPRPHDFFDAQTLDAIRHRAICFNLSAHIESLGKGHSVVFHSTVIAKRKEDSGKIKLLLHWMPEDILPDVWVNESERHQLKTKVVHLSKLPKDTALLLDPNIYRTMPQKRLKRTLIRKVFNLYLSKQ

Structure (SMILES)	pIC50 [1]	pIC50 [2]
CCN(c1scc(C(=O)NCc2c(C)[nH]c(C)cc2=O)c1C)[C@H]1CC[C@H](N(C)C)CC1 [Example 2, N-((2,6-dimethyl-4-oxo-1,4-dihydropyridin-3-yl)methyl)-5-(((trans)-4-(dimethylamino)cyclohexyl)(ethyl)amino)-4-methylthiophene-3-carboxamide]	7.49	7.00
CCN(c1scc(C(=O)NCc2c(C)[nH]c(C)cc2=O)c1C)C1CCOCC1 [Example 1, N-((2,6-dimethyl-4-oxo-1,4-dihydropyridin-3-yl)methyl)-5-(ethyl(tetrahydro-2H-pyran-4-yl)amino)-4-methylthiophene-3-carboxamide]	6.50	
CCN(c1sc(Br)c(C(=O)NCc2c(C)[nH]c(C)cc2=O)c1C)[C@H]1CC[C@H](N(C)C)CC1 [Example 4, 2-Bromo-N-((2,6-dimethyl-4-oxo-1,4-dihydropyridin-3-yl)methyl)-5-(((trans)-4-(dimethylamino)cyclohexyl)(ethyl)amino)-4-methylthiophene-3-carboxamide]		6.80
CCN(c1scc(C(=O)NCc2c(C)[nH]c(C)c(N)c2=O)c1C)[C@H]1CC[C@H](N(C)C)CC1 [Example 3, N-((5-amino-2,6-dimethyl-4-oxo-1,4-dihydropyridin-3-yl)methyl)-5-(((trans)-4-(dimethylamino)cyclohexyl)(ethyl)amino)-4-methylthiophene-3-carboxamide]	7.49	7.80
